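Where inhibition never reached the appropriate level, the endpoint shown equals the highest concentration tested. Otherwise, values were interpolated linearly from a five-concentration, 48-hour dose response in 96-well plates. GI50 = concentration required for 50% inhibition of growth.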 Calls of active or inactive are those of the source. No stated cut-off is given here; in the data, active = GI50 up to about 1.1 µM and inactive = higher.
Assays:
Assay in all cases: growth of human tumour cells (NCI), 48 h
XF498 = test system: XF498
LXFL 529 = test system: LXFL 529
DLD-1 = test system: DLD-1
DU-145 = test system: DU-145
SR = test system: SR
Hs-578T = test system: Hs-578T
MDA-MB-231 = test system: MDA-MB-231

Structure (SMILES)	GI50 (XF498)	GI50 (LXFL 529)	GI50 (DLD-1)	GI50 (DU-145)	GI50 (SR)	GI50 (Hs-578T)	GI50 (MDA-MB-231)
O=C1NP23(OCCO2)Oc2ccccc2C3(C(F)(F)F)O1 (stereo not drawn)	> 100 µM (inactive)	> 100 µM (inactive)	> 100 µM (inactive)	–	–	–	–
Cc1nc(O)nc(N/N=C/c2ccc(Cl)cc2)c1C(=O)NC(C)(CO)CO	–	–	–	> 100 µM (inactive)	> 100 µM (inactive)	> 100 µM (inactive)	–
COC1OC2COC(c3ccccc3)OC2C(O)C1OC(=S)c1ccccc1 (stereo not drawn)	–	–	–	97.3 µM (inactive)	42.9 µM (inactive)	62.1 µM (inactive)	36.7 µM (inactive)
N#CC(OC1OC(COC2OC(CO)C(O)C(O)C2O)C(O)C(O)C1O)c1ccccc1 (stereo not drawn)	> 225 µM (inactive)	–	> 225 µM (inactive)	–	–	–	–
COC(=O)[C@H]1C=NN[C@@H]1C(=O)N1[C@H]2CC3CC[C@@]2(CS1(=O)=O)C3(C)C	–	–	–	> 100 µM (inactive)	> 100 µM (inactive)	> 100 µM (inactive)	> 100 µM (inactive)
CCOC(=O)/C=C/CC(C)(C)COC(C)=O	–	–	–	7.43 µM (inactive)	> 10 µM (inactive)	0.406 µM (active)	> 10 µM (inactive)
CSCC[C@@H](NC(=O)[C@H](CC(C)C)NC(=O)C(Cc1cnc[nH]1)NC(=O)CNC(=O)[C@@H](NC(=O)[C@H](C)NC(=O)[C@H](Cc1c[nH]c2ccccc12)NC(=O)[C@H](CCC(N)=O)NC(=O)[C@@H](N)CC(N)=O)C(C)C)C(N)=O (stereo partly drawn)	> 100 µM (inactive)	–	> 100 µM (inactive)	–	–	–	–
O=C(OC1C#CCSCC#C/C=C\1)c1ccc2c(c1)C(=O)c1ccccc1C2=O (stereo not drawn)	–	–	–	> 100 µM (inactive)	25.5 µM (inactive)	24.2 µM (inactive)	26.2 µM (inactive)
C=C1CC(OC)(C(O)C(=O)N[C@H]2OCO[C@H]3C2O[C@H](C[C@H](O)COC)C(C)(C)C3OC)O[C@H](C)[C@@H]1C (stereo partly drawn)	< 0.00773 µM (active)	–	< 0.00773 µM (active)	–	–	–	–
